Test results from US20250311727A1, “SUBSTITUTED 2-AMINOAZINES AND SALTS THEREOF, AND USE THEREOF AS HERBICIDAL ACTIVE SUBSTANCES” (BAYER AKTIENGESELLSCHAFT, priority 2022, published 2025).

Experiments:
Format in all cases: in vivo
Amaranthus retroflexus [1] = test: Post-emergence herbicidal efficacy at 80 g/ha, AMARE; conditions: rated visually after about 3 weeks vs untreated controls, 100% = plants have died
Description: (§1) Unwanted plants/weeds: • ABUTH: Abutilon theophrasti • ALOMY: Alopecurus myosuroides • AMARE: Amaranthus retroflexus • DIGSA: Digitaria sanguinalis • ECHCG: Echinochloa crus-galli • KCHSC: Kochia scoparia • LOLRI: Lolium rigidum • MATIN: Matricaria inodora • POAAN: Poa annua • POLCO: Polygonum convolvulus • SETVI: Setaria viridis • STEME: Stellaria media • VERPE: Veronica persica • VIOTR: Viola tricolor A. Post-Emergence Herbicidal Efficacy at 320 g/ha
(§2) Seeds of monocotyledonous and dicotyledonous weeds and crop plants were placed in sandy loam in plastic or organic planting pots, covered with soil and cultivated in a greenhouse under controlled growth conditions. 2 to 3 weeks after sowing, the test plants were treated at the one-leaf stage. The compounds of the invention, formulated in the form of wettable powders (WP) or as emulsion concentrates (EC), were then sprayed onto the green parts of the plants as aqueous suspension or emulsion with addition of 0.5% additive at a water application rate of 600 l/ha (converted). After the test plants had been kept in the greenhouse under optimum growth conditions for about 3 weeks, the activity of the preparations was rated visually in comparison to untreated controls. For example, 100% activity=the plants have died, 0% activity=like control plants.
(§3) Tables B1 to B11 below show the effects of selected compounds of the general formula (I) according to Table 1 on various harmful plants and an application rate corresponding to 80 g/ha, which were obtained by the experimental procedure mentioned above.

Echinochloa crus-galli [2] = test: Post-emergence herbicidal efficacy at 80 g/ha, ECHCG; conditions: rated visually after about 3 weeks vs untreated controls, 100% = plants have died
Description: as §1, §2, §3

Veronica persica [3] = test: Post-emergence herbicidal efficacy at 80 g/ha, VERPE; conditions: rated visually after about 3 weeks vs untreated controls, 100% = plants have died
Description: as §1, §2, §3

Viola tricolor [4] = test: Post-emergence herbicidal efficacy at 80 g/ha, VIOTR; conditions: rated visually after about 3 weeks vs untreated controls, 100% = plants have died
Description: as §1, §2, §3

Abutilon theophrasti = test: Pre-emergence herbicide efficacy at 80 g/ha, ABUTH; conditions: scored visually after about 3 weeks vs untreated controls, 100% = plants have died
Description: as §1
(§4) Seeds of monocotyledonous and dicotyledonous weed plants and crop plants were placed in plastic or organic planting pots and covered with soil. The compounds of the invention, formulated in the form of wettable powders (WP) or as emulsion concentrates (EC), were then applied to the surface of the covering soil as aqueous suspension or emulsion with addition of 0.5% additive at a water application rate equivalent to 600 l/ha. After the treatment, the pots were placed in a greenhouse and kept under good growth conditions for the test plants. After about 3 weeks, the efficacy of the preparations was scored visually in comparison with untreated controls as percentages. For example, 100% activity=the plants have died, 0% activity=like control plants.
(§5) Tables D1 to D12 below show the effects of selected compounds of the general formula (I) according to Table 1 on various harmful plants and an application rate corresponding to 80 g/ha, which were obtained by the experimental procedure mentioned above.

Amaranthus retroflexus [5] = test: Pre-emergence herbicide efficacy at 80 g/ha, AMARE; conditions: scored visually after about 3 weeks vs untreated controls, 100% = plants have died
Description: as §1, §4, §5

Digitaria sanguinalis = test: Pre-emergence herbicide efficacy at 80 g/ha, DIGSA; conditions: scored visually after about 3 weeks vs untreated controls, 100% = plants have died
Description: as §1, §4, §5

Echinochloa crus-galli [6] = test: Pre-emergence herbicide efficacy at 80 g/ha, ECHCG; conditions: scored visually after about 3 weeks vs untreated controls, 100% = plants have died
Description: as §1, §4, §5

Kochia scoparia = test: Pre-emergence herbicide efficacy at 80 g/ha, KCHSC; conditions: scored visually after about 3 weeks vs untreated controls, 100% = plants have died
Description: as §1, §4, §5

Matricaria inodora = test: Pre-emergence herbicide efficacy at 80 g/ha, MATIN; conditions: scored visually after about 3 weeks vs untreated controls, 100% = plants have died
Description: as §1, §4, §5

Polygonum convolvulus = test: Pre-emergence herbicide efficacy at 80 g/ha, POLCO; conditions: scored visually after about 3 weeks vs untreated controls, 100% = plants have died
Description: as §1, §4, §5

Veronica persica [7] = test: Pre-emergence herbicide efficacy at 80 g/ha, VERPE
Description: as §1, §4, §5

Viola tricolor [8] = test: Pre-emergence herbicide efficacy at 80 g/ha, VIOTR
Description: as §1, §4, §5

## Cc1cnc(Nc2cccc(C#N)c2-n2cc(C(F)(F)F)cn2)nc1 [Example 1-39]
Amaranthus retroflexus [1]
  Post-emergence efficacy at 80 g/ha against AMARE in %: 80%
Echinochloa crus-galli [2]
  Post-emergence efficacy at 80 g/ha against ECHCG in %: 80%
Veronica persica [3]
  Post-emergence efficacy at 80 g/ha against VERPE in %: 90%
Viola tricolor [4]
  Post-emergence efficacy at 80 g/ha against VIOTR in %: 80%
Abutilon theophrasti
  Pre-emergence efficacy at 80 g/ha against ABUTH in %: 100%
Amaranthus retroflexus [5]
  Pre-emergence efficacy at 80 g/ha against AMARE in %: 100%
Digitaria sanguinalis
  Pre-emergence efficacy at 80 g/ha against DIGSA in %: 100%
Echinochloa crus-galli [6]
  Pre-emergence efficacy at 80 g/ha against ECHCG in %: 100%
Kochia scoparia
  Pre-emergence efficacy at 80 g/ha against KCHSC in %: 90%
Matricaria inodora
  Pre-emergence efficacy at 80 g/ha against MATIN in %: 100%
Polygonum convolvulus
  Pre-emergence efficacy at 80 g/ha against POLCO in %: 90%
Veronica persica [7]
  Pre-emergence efficacy against VERPE: 90%
Viola tricolor [8]
  Pre-emergence efficacy against VIOTR: 100%
